Experiment [1] has as its target T1, human type 1 5α-reductase (Homo sapiens, UniProt P18405).
T1 sequence (P18405 1-259): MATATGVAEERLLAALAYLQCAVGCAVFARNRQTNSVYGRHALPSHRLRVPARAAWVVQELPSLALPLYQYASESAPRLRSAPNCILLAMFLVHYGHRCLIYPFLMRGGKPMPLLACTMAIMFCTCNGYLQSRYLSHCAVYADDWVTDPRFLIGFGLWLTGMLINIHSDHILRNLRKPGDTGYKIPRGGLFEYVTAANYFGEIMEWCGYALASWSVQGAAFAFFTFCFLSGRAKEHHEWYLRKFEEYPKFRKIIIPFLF
Description: 5α-reductase in vitro inhibitory activity, human type 1.

Experiment [2] has as its target Rat Prostatic 5α-reductase. Description: 5α-reductase in vitro inhibitory activity, rat prostatic. Conditions: read-out: IC50 Rat Prostatic; microsomes derived from prostate tissue from the rat.
Description: Microsomes were prepared by homogenization of the tissue or cells, followed by differential centrifugation of the homogenate. […] Corresponding incubations were carried out with no test compound as a control study.
The percentage of conversion of testosterone to DHT in the presence of test compounds compared to the corresponding conversion in the control study was estimated using high pressure liquid chromatography (HPLC) with radiochemical detection.
For experiment [3], the target named is T2, human type 2 5α-reductase (Homo sapiens, UniProt P31213).
T2 sequence (P31213 1-254): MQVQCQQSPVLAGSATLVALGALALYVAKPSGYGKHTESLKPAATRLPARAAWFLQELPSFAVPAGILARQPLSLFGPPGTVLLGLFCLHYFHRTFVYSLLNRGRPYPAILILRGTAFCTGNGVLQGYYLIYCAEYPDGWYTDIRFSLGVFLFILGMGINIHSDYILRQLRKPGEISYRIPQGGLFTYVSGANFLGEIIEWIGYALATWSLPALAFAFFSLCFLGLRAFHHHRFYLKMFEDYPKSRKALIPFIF
Description: 5α-reductase in vitro inhibitory activity, human type 2.

Where [4] appears, read: read-out: IC50 Human Type 1, microsomes of recombinant baculovirus infected SF9 cells, preincubated 10 minutes at pH 7.0, 100nM testosterone, 1 mM NADPH.
Where [5] appears, read: read-out: IC50 Human Type 2, microsomes, preincubated 20 minutes at pH 6.0, 8nM testosterone, 1 mM NADPH.

Where two headings read alike, the source gives them in different places.

In general, IC50 refers to the midpoint of a concentration-inhibition curve. Turning to `C[C@]12CC[C@H]3[C@@H](CNC4=CC(=O)CC[C@@]43C)[C@@H]1CC[C@@H]2C(=O)Nc1ccc2c(c1)CCC2` [Compound 4, 17β-N-5-Indanylcarbamoyl-6-azaandrost-4-en-3-one], the values for the IC50 in experiment [1], in experiment [2] and in experiment [3] were greater than 100 nM, greater than 100 nM and less than 10 nM, respectively.

Turning to `CC12CCC(=O)C=C1NCC1C2CCC2(C)C(C(=O)NC(c3ccccc3)c3ccc(Cl)cc3)CCC12` (stereo not drawn) [Compound 11, 17β-N-(4-Chlorophenyl)(phenyl)methyl-carbamoyl-6-azaandrost-4-en-3-one], the IC50 in experiment [1] is 10 to 100 nM; in experiment [2] it was less than 10 nM; in experiment [3] it was less than 10 nM.

On to `C[C@]12CC[C@H]3[C@@H](CNC4=CC(=O)CC[C@@]43C)[C@@H]1CC[C@@H]2C(=O)NN(c1ccccc1)c1ccccc1` [Compound 25, 17β-N-(2,2-Diphenyl)-hydrazidyl-6-azaandrost-4-en-3-one], for which the IC50 in experiment [1] was 10 to 100 nM; in experiment [2] it was less than 10 nM; in experiment [3], less than 10 nM.

In the case of “17β-N-2-(3-N-Methylpyrrole)ethyl-carbamoyl-6-azaandrost-4-en-3-one [Compound 29]”, the IC50 in experiment [1] (setting [4]) is greater than 100 nM; in experiment [2], 10 to 100 nM; in experiment [3] (setting [5]), 10 to 100 nM.

On to `CC(C)(C)C1CCC(NC(=O)[C@H]2CC[C@H]3[C@@H]4CNC5=CC(=O)CC[C@]5(C)[C@H]4CC[C@]23C)CC1` (stereo partly drawn) [Compound 51, 17β-N-(4-t-Butyl)cyclohexyl-carbamoyl-6-azaandrost-4-en-3-one], for which the values for the IC50 in experiment [1], in experiment [2] and in experiment [3] were greater than 100 nM, greater than 100 nM and 10 to 100 nM, respectively.

For the compound `C[C@]12CC[C@H]3[C@@H](CNC4=CC(=O)CC[C@@]43C)[C@@H]1CC[C@@H]2C(=O)Nc1cccc2c1Cc1ccccc1-2` [Compound 15, 17β-N-1-Fluorenyl-carbamoyl-6-azaandrost-4-en-3-one], the half-maximal inhibitory concentration (IC50) in experiment [1] was greater than 100 nM; in experiment [2] it was less than 10 nM; in experiment [3], less than 10 nM.

Regarding `C[C@]12CC[C@H]3[C@@H](CNC4=CC(=O)CC[C@@]43C)[C@@H]1CC[C@@H]2C(=O)Nc1ccc2c(c1)OCCO2` [Compound 6, 17β-N-4-Benzodioxan-carbamoyl-6-azaandrost-4-en-3-one], the IC50 in experiment [1] (setting [4]) was greater than 100 nM; in experiment [2], 10 to 100 nM; in experiment [3] (setting [5]), 10 to 100 nM.

Turning to `Cc1cc(C)c(NC(=O)[C@H]2CC[C@H]3[C@@H]4CNC5=CC(=O)CC[C@]5(C)[C@H]4CC[C@]23C)c(C)c1` [Compound 40, 17β-N-(2,4,6-Trimethyl)phenyl-carbamoyl-6-azaandrost-4-en-3-one], the IC50 in experiment [1] is 10 to 100 nM; in experiment [2], 10 to 100 nM; in experiment [3] it was less than 10 nM.

For the compound `CC(C)c1cccc(C(C)C)c1NC(=O)[C@H]1CC[C@H]2[C@@H]3CNC4=CC(=O)CC[C@]4(C)[C@H]3CC[C@]12C` [Compound 14, 17β-N-(2,6-Di-i-propyl)phenyl-carbamoyl-6-azaandrost-4-en-3-one], the results for the IC50 in experiment [1], in experiment [2] and in experiment [3] were 10 to 100 nM, less than 10 nM and less than 10 nM, respectively.

Regarding `C[C@]12CC[C@H]3[C@@H](CNC4=CC(=O)CC[C@@]43C)[C@@H]1CC[C@@H]2C(=O)NCCC(c1ccccc1)c1ccccc1` [Compound 16, 17β-N-(3,3-Diphenyl)propyl-carbamoyl-6-azaandrost-4-en-3-one], the IC50 in experiment [1] is 10 to 100 nM; in experiment [2], less than 10 nM; in experiment [3] it was less than 10 nM.

Turning to `CC(C)(C)NC(=O)c1ccc(C(F)(F)F)cc1NC(=O)[C@H]1CC[C@H]2[C@@H]3CNC4=CC(=O)CC[C@]4(C)[C@H]3CC[C@]12C` [Compound 142, 17β-N-(2-t-Butylcarbamoyl-5-trifluoromethyl)phenyl-carbamoyl-6-azaandrost-4-en-3-one], the IC50 in experiment [1] is greater than 100 nM; in experiment [3], less than 10 nM.

As for `CC(C)(C)c1ccc(NC(=O)[C@H]2CC[C@H]3[C@@H]4CNC5=CC(=O)CC[C@]5(C)[C@H]4CC[C@]23C)cc1[N+](=O)[O-]` [Compound 92, 17β-N-(3-Nitro-4-t-butyl)phenyl-carbamoyl-6-azaandrost-4-en-3-one], the results for the half-maximal inhibitory concentration (IC50) in experiment [1] and in experiment [3] were 10 to 100 nM and less than 10 nM, respectively.

`CC(C)(C)c1ccc(-c2ccccc2)cc1NC(=O)[C@H]1CC[C@H]2[C@@H]3CNC4=CC(=O)CC[C@]4(C)[C@H]3CC[C@]12C` [Compound 88, 17β-N-(2-t-Butyl-5-phenyl)phenyl-carbamoyl-6-azaandrost-4-en-3-one]: the half-inhibitory concentration (IC50) in experiment [1] and in experiment [3] was less than 10 nM each time.

On to `COC(=O)c1sc(C(C)(C)C)cc1NC(=O)[C@H]1CC[C@H]2[C@@H]3CNC4=CC(=O)CC[C@]4(C)[C@H]3CC[C@]12C` [Compound 132, 17β-N-3-(2-Carbomethoxy-5-t-butyl)thiophenyl-carbamoyl-6-azaandrost-4-en-3-one], for which the IC50 in experiment [1] was 10 to 100 nM; in experiment [3], less than 10 nM.

Consider `CC(C)(C)c1ccc(C2(NC(=O)[C@H]3CC[C@H]4[C@@H]5CNC6=C(Cl)C(=O)CC[C@]6(C)[C@H]5CC[C@]34C)CCCCC2)cc1` [Compound 139, 17β-N-1-(4-t-Butylphenyl)cyclohexyl-carbamoyl-6-azaandrost-4-chloro-4-en-3-one], for which the IC50 in experiment [1] and in experiment [3] was less than 10 nM in each case.

Regarding `C[C@]12CC[C@H]3[C@@H](CNC4=CC(=O)CC[C@@]43C)[C@@H]1CC[C@@H]2C(=O)NCCSc1ccccc1` [Compound 23, 17β-N-2-(Phenylthio)ethyl-carbamoyl-6-azaandrost-4-en-3-one], the values for the IC50 in experiment [1] and in experiment [3] were 10 to 100 nM and less than 10 nM, respectively.

As to `C[C@]12CC[C@H]3[C@@H](CNC4=CC(=O)CC[C@@]43C)[C@@H]1CC[C@@H]2C(=O)Nc1c(Br)cc(Cl)cc1Br` [Compound 69, 17β-N-(2,6-Dibromo-4-chloro)phenyl-carbamoyl-6-azaandrost-4-en-3-one], the IC50 in experiment [1] is 10 to 100 nM; in experiment [3] it was less than 10 nM.

Turning to `CC(C)(C)c1ccc(NC(=O)[C@H]2CC[C@H]3[C@@H]4CNC5=CC(=O)CC[C@]5(C)[C@H]4CC[C@]23C)cc1` [Compound 108, 17β-N-(4-t-Butyl)phenyl-carbamoyl-6-azaandrost-4-en-3-one], the results for the IC50 in experiment [1] and in experiment [3] were 10 to 100 nM and less than 10 nM, respectively.

`C[C@]12CC[C@H]3[C@@H](CNC4=CC(=O)CC[C@@]43C)[C@@H]1CC[C@@H]2C(=O)NC1(c2ccc(C(F)(F)F)cc2)CCCC1` [Compound 106, 17β-N-1-(4-Trifluoromethylphenyl)cyclopentyl-carbamoyl-6-azaandrost-4-en-3-one]: the IC50 in experiment [1] and in experiment [3] was less than 10 nM throughout.

Turning to `CC(C)(C)c1ccccc1NC(=O)[C@H]1CC[C@H]2[C@@H]3CNC4=CC(=O)CC[C@]4(C)[C@H]3CC[C@]12C` [Compound 56, 17β-N-(2-t-Butyl)phenyl-carbamoyl-6-azaandrost-4-en-3-one], the results for the IC50 in experiment [1] and in experiment [3] were 10 to 100 nM and less than 10 nM, respectively.

As for `C[C@]12CC[C@H]3[C@@H](CNC4=CC(=O)CC[C@@]43C)[C@@H]1CC[C@@H]2C(=O)N(C(=O)NC1CCCCC1)C1CCCCC1` [Compound 96, 17β-(N-cyclohexyl-N-(N-cyclohexylcarbamoyl))-carbamoyl-6-azaandrost-4-en-3-one], the 50% inhibitory concentration (IC50) in experiment [1] is 10 to 100 nM; in experiment [3] it was less than 10 nM.

On to `C[C@]12CC[C@H]3[C@@H](CNC4=CC(=O)CC[C@@]43C)[C@@H]1CC[C@@H]2C(=O)c1ccc(F)cc1F` [Compound 26, 17β-(1-Oxo-1-(2,4-difluorophenyl)methyl)-6-azaandrost-4-en-3-one], for which the IC50 is 10 to 100 nM in experiment [1] and less than 10 nM in experiment [3].

As to `C[C@]12CC[C@H]3[C@@H](CNC4=CC(=O)CC[C@@]43C)[C@@H]1CC[C@@H]2C(=O)Nc1ccccc1S(=O)(=O)c1ccccc1` [Compound 133, 17β-N-(2-Phenylsulfonyl)phenyl-carbamoyl-6-azaandrost-4-en-3-one], the IC50 in experiment [1] was greater than 100 nM; in experiment [3], less than 10 nM.

`C[C@]12CC[C@H]3[C@@H](CNC4=CC(=O)CC[C@@]43C)[C@@H]1CC[C@@H]2CNC(=O)NC12CC3CC(CC(C3)C1)C2` [Compound 98, 17β-Aminomethyl-(1-adamantylurea)-6-azaandrost-4-en-3-one]: the IC50 in experiment [1] and in experiment [3] was less than 10 nM in each case.

On to `C[C@]12CC[C@H]3[C@@H](CNC4=CC(=O)CC[C@@]43C)[C@@H]1CC[C@@H]2C(=O)NNc1ccccc1` [Compound 141, 17β-N-(2-Phenyl)-hydrazidyl-carbamoyl-6-azaandrost-4-en-3-one], for which the values for the IC50 in experiment [1] and in experiment [3] were greater than 100 nM and less than 10 nM, respectively.

Regarding `C[C@]12CC[C@H]3[C@@H](CNC4=CC(=O)CC[C@@]43C)[C@@H]1CC[C@@H]2C(=O)NC1(c2ccc3c(c2)OCO3)CCCCC1` [Compound 124, 17β-N-1-(3,4-Methylenedioxyphenyl)cyclohexyl-carbamoyl-6-azaandrost-4-en-3-one], the IC50 is 10 to 100 nM in experiment [1] and less than 10 nM in experiment [3].

`C[C@]12CC[C@H]3[C@@H](CNC4=CC(=O)CC[C@@]43C)[C@@H]1CC[C@@H]2C(=O)Nc1c(Cl)cc(Cl)cc1Cl` [Compound 58, 17β-N-(2,4,6-Trichloro)phenyl-carbamoyl-6-azaandrost-4-en-3-one]: the IC50 in experiment [1] was 10 to 100 nM; in experiment [3], less than 10 nM.

Source of the values: patent EP0674651B1, “SUBSTITUTED 6-AZAANDROSTENONES” (priority 1992, dated 1994).
